Experimental findings from patent US10150793B2, “Antagonists of CB1 receptor” (INSERM (Institut National de la Santé et de la Recherche …, priority 2011, dated 2018) are described below.

The subject of one assay is TNF-α. The assay can be described thus: Increase in plasma TNF-alpha induced by LPS. In kind it is in vivo, mice. The conditions noted are these: pregnenolone 6 mg/kg sc 30 min before LPS; measured 90 min after LPS. On the procedure: Trunk blood was collected and centrifuged at 3000 rpm for 15 min at 4° C. Plasma was stored at −80° C. until measurement of TNFα was carried out. Plasma TNFα levels were assessed using an ELISA kit, following the manufacturer's instructions (Fisher Scientific, Catalog #E6473C).
In this example the inventors further analyzed the ability of pregnenolone to inhibit the effects of CB1 activation in the context of inflammation and fibrosis. […] TNF-alpha is one of the cellular responses to inflammatory stimuli more involved in promoting fibrosis.
(§1) Other pregnenolone derivatives (Table 4) for which the metabolism in downstream active steroids was reduced were tested for their ability to inhibit: 1. effects of the THC-induced cannabinoid tetrade (decrease in body temperature and in locomotor activity, (THC 10 mg/kg, compounds 6 mg/kg 15-30 min before THC) that is recognized as a sound method to evaluate the activation of the CB1 receptor; 2. THC-induced increase in food intake a typical effect of CB1 activation (THC between 0.5 and 1 mg/kg, compounds between 2 and 4 mg/kg 30 min before THC); 3. the increase in TNFalpha induced by LPS, another effects typical of CB1 […] (compounds 6 mg/kg 15 min before LPS). For each compound and each test independent groups of animals were used (at least n=6 per compound/per test).

The next assay has as its system GABA-A receptors. The assay can be described thus: GABA-A receptors-mediated mIPSC in nucleus accumbens principal neurons. The assay is classed as cell-based, mouse. On the procedure:
GABA-A receptors-mediated currents: mIPSC were recorded in the presence of the AMPAR and NMDAR antagonists (DNQX 20 μM and AP-5 50 μM, respectably). mEPSC-mIPSC analysis: Typically, after breaking in, cells were left to equilibrate for 20 minutes and the subsequent 10 minutes recording of mEPSC-mIPSC was used to analysis. mEPSC-mIPSC were detected using a template generated from averaging several typical events (Clampfit 10, Molecular Devices). The template was slid along the data trace one point at a time. At each position, the template was optimally scaled and offset to fit the data. A lower-amplitude threshold of 7 pA and 10 pA were applied for mEPSC and mIPSC, respectably, equivalent to 2.5SD of baseline noise. For each cell, the kinetics of mEPSC-mIPSC was measured from the average event using Clampfit 10. To estimate decay times, a two exponentials curve was fitted between 5 and 95% of the decay phase of the current given by the following equation: y(t)=A1·e^(−t/τ1)+A2·e^(−t/τ2), where A is the amplitude, t is the time and τ is the decay time constant. The weighted tau was then calculated.
In order to evaluate the effect of pregnenolone on the function of post-synaptic GABA we recorded mIPSC and compared its amplitude and decay time between groups. We observed that mIPSC amplitude and decay time were similar between controls (amplitude: 17.9±0.8 pA; decay time: 11.1±0.3 ms) and slices pre-treated with pregnenolone (100 nM and 1 μM, respectively; amplitude: 17.3±0.4 pA, 15.9±0.4 pA; decay time: 10.2±0.4 ms, 10.8±0.5 ms).

The target in assay [1] is T1, CB1 receptor (Rattus norvegicus, UniProt P20272). The experiment in a line: THC inhibition of AMPAR-mediated EPSC, patch clamp in nucleus accumbens slices. Details: from tissue; host or cells: acute coronal brain slices, nucleus accumbens. In kind it is cell-based, rats. The note with it: slices pre-treated with Pregnenolone 100 nM.
Assay [2] addresses T2, CB1 receptor (Mus musculus, UniProt P47746). The assay can be described thus: THC-induced cannabinoid tetrad (body temperature, locomotor activity, catalepsy, analgesia). In kind it is in vivo, mice. Details: tissue Charles River Laboratories (France) (animals); host or cells: living mice, whole animal.
The target in assay [3] is T2, CB1 receptor. The experiment in a line: THC-induced increase in food intake in mice. In kind it is in vivo. Details: tissue Charles River Laboratories (France) (animals); host or cells: living mice, whole animal. The conditions noted are these: for effect on THC-induced increase in food intake (hyperphagia) in mice: 24 h-food deprived C57B1/6 mice, THC 1 mg/kg, compound 2 mg/kg sc. On the procedure: (§2) Food intake was evaluated by measuring consumption of food in the home cages of the animals. For each animal, 50-100 g of standard laboratory chow (U.A.R., France) was placed in the cleaned home cage. The remaining amount of food was weighted 1 h later and the amount of food consumed calculated.
as §1

The target in assay [4] is T2, CB1 receptor. The experiment in a line: Object recognition task, THC-induced amnesia. The assay is classed as in vivo, mice. Details: tissue Charles River Laboratories (France) (animals); host or cells: living mice, whole animal. The method, then:
Object recognition was measured in a two arms L-maze (size of each arm 30 cm length×4.5 cm width) in dim light condition (50-60 lux). Animals were individually tested for three consecutive days for 9 min-session each day, corresponding to habituation, training and test sessions. On day 1 (habituation session), mice were let explore the L maze with no object. On the second day (training session), two identical objects were presented at the end of the each arm of the maze. Although no preferences for arm of object appeared (data not shown) object and arms were randomized for each mouse/condition. On the 3rd day (test session), one of the familiar objects was replaced with a novel object and the total time spent exploring each of the two objects (novel and familiar) was computed. The time spent in each arm and the time spent exploring an object (familiar or novel) were recorded. Object exploration was defined as the orientation of the nose to the object at a distance of less than 2 cm. During the test session, a discrimination index was calculated as the difference between the times spent exploring either the novel or familiar object divided by the total time exploring the two objects. […]
In this example the inventors further analyzed the ability of pregnenolone to inhibit the effects of CB1 activation. […]

Assay [5] deals with T1, CB1 receptor. The assay can be described thus: THC-induced increase in food intake in ad libitum fed Wistar rats. In kind it is in vivo. The arrangement: tissue Charles River Laboratories (France) (animals); host or cells: living Wistar rats, whole animal. The method, then:
as §2

Each structure is given as a SMILES string.

T1 sequence (P20272 whole entry): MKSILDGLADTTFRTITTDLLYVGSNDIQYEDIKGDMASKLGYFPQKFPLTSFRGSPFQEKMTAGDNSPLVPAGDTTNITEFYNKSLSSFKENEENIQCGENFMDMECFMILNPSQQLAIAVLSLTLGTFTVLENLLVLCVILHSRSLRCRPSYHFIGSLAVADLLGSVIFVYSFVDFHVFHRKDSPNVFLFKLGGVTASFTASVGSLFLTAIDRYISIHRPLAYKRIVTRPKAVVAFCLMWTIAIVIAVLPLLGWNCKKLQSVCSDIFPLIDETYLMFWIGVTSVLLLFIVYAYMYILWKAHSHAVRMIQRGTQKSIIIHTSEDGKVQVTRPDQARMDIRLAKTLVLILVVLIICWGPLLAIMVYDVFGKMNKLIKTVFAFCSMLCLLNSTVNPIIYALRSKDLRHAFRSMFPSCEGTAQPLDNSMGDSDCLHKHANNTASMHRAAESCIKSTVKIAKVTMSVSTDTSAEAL
T2 sequence (P47746 whole entry): as the sequence (P20272 whole entry) above, with E95D counted along it

For the molecule `CC(=O)[C@H]1CC[C@H]2[C@@H]3CC=C4C[C@@H](O)CC[C@]4(C)[C@H]3CC[C@]12C` [Pregnenolone, 5-Pregnen-3β-ol-20-one], the “effect on increase in TNF-alpha induced by LPS” value in the assay on TNF-α is reported as “halved the increase in TNF-alpha”. Also, the mIPSC amplitude in the assay on GABA-A receptors (slices pre-treated with 100 nM) is listed as 17.3±0.4 pA; in the assay on GABA-A receptors (slices pre-treated with 1 μM), 15.9±0.4 pA. For the same molecule, the mIPSC decay time with GABA-A receptors (slices pre-treated with 100 nM) was 10.2 ± 0.4 ms; in the assay with GABA-A receptors (slices pre-treated with 1 μM), 10.8 ± 0.5 ms. Moreover, at CB1 receptor [1], the “inhibition of EPSC amplitude by THC” value is 15.1±1.8 % of inhibition. The “effect on THC-induced cannabinoid tetrad” value at CB1 receptor [2] (pregnenolone 6 mg/kg before THC, absence of AMG) was “decreased all the behaviours of the THC-induced cannabinoid tetrad”. For the same molecule, at CB1 receptor [2] (pregnenolone 6 mg/kg, AMG 50 mg/kg, THC 10 mg/kg), the “effect on the AMG enhancement of THC behavioural effects” value is recorded as “completely reversed”. Further, the “effect on locomotor activity, body temperature, catalepsy and pain threshold in the absence of THC” value on CB1 receptor [2] (pregnenolone per se) is listed as “had no effect”. The “effect on THC-induced increase in food intake (hyperphagia) in mice” value at CB1 receptor [3] is “decreased THC-induced hyperphagia”; at CB1 receptor [3] (listed as pregnenolone), “suppressed the increase in food intake”. Further, the “dose inhibiting THC-induced increase in food-intake (first effective dose)” value on CB1 receptor [3] (dose response in 24 h-food deprived mice, 0.5 mg/kg dose was ineffective) was 1 mg/kg. Further, the “effect on memory retention in the absence of THC” value at CB1 receptor [4] (pregnenolone 6 mg/kg) was “did not induce any change in memory retention”. On CB1 receptor [4] (pregnenolone 6 mg/kg immediately after training, THC 10 mg/kg), the “effect on amnesic effect of THC” value was “strongly blunted the amnesic effect”. The “effect on THC-induced food intake in sated rats” value on CB1 receptor [5] (THC 0.5 mg/kg, pregnenolone 30 min before THC) is “dose-dependently decreased THC-induced food intake”. For the same molecule, the “effect on basal food intake” value at CB1 receptor [5] (pregnenolone 2 mg/kg, FIG. 3 A, B) was “did not significantly modified basal food intake”. In addition, the “dose with statistically significant effect on THC-induced food intake” value on CB1 receptor [5] (sated rats, THC 0.5 mg/kg) turned out to be 2 mg/kg.
